This is an account of results in PMC5452050 (ACS Omega, 2017).

SMILES strings stand for the structures. Residue numbers refer to the chain shown, from its start. pKd: −log10 of the molar value.

Common to all, as to test: Kd determination
Assay type in all cases: binding

The target of assay [1] is T1, FLT3 (D835V) (Homo sapiens, UniProt P36888, D835V).
T1 sequence (P36888 27-993 D835V): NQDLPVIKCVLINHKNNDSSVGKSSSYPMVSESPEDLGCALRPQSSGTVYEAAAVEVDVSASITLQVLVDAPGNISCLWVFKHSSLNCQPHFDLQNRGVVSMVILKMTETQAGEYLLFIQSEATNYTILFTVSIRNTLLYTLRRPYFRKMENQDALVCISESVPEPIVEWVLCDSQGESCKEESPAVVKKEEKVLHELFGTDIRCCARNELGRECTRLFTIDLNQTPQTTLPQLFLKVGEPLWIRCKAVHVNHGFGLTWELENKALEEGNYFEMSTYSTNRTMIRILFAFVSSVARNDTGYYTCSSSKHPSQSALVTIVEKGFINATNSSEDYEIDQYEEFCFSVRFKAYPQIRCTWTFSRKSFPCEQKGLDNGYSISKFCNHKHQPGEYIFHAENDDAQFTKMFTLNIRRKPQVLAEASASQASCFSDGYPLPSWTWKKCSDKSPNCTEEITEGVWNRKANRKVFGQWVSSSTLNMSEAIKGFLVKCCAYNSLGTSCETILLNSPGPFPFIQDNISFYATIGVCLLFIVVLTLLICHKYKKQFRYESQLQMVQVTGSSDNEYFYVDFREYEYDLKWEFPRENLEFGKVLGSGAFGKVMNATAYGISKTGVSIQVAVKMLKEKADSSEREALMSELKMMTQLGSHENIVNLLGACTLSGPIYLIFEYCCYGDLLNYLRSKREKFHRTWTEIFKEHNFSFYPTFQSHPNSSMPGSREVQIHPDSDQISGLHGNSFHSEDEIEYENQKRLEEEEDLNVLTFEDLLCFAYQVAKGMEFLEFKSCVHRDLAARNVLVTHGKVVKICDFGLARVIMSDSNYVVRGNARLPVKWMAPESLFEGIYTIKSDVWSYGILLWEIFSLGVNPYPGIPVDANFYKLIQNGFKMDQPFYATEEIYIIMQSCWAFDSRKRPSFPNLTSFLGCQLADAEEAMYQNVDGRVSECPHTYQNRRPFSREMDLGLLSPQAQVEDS

The target in assay [2] is T2, FLT3 (ITD) (Homo sapiens, UniProt P36888, ITD).
T2 sequence (P36888 564-993): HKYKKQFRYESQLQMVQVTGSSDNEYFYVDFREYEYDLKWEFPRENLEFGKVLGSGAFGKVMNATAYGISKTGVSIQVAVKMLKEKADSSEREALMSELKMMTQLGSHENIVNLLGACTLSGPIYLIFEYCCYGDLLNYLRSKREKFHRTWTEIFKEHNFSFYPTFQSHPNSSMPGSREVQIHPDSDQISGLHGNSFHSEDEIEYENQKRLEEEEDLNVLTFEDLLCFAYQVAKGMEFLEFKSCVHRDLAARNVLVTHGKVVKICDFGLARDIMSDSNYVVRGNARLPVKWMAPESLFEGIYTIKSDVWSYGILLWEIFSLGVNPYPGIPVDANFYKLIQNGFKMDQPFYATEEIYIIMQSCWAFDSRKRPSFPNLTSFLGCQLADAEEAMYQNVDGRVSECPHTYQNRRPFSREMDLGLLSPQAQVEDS

In assay [3] the target is T3, FLT3 (ITD, D835V) (Homo sapiens, UniProt P36888, D835V/ITD).
T3 sequence (P36888 564-993 D835V): T2 sequence (P36888 564-993) with D272V

In assay [4] the target is T4, FLT3 (R834Q) (Homo sapiens, UniProt P36888, R834Q).
T4 sequence (P36888 27-993 R834Q): T1 sequence (P36888 27-993 D835V) with R808Q, V809D

Assay [5] has as its target T5, FLT3-autoinhibited (Homo sapiens, UniProt P36888).
T5 sequence (P36888 564-993 limits assumed): T2 sequence (P36888 564-993)

With `CC(C)Nc1ccnc(Nc2cccc(-c3cccnc3)c2)n1` [Compound 5e, N^4-Isopropyl-N^2-(3-(pyridin-3-yl)phenyl)pyrimidine-2,4-diamine], the pKd in assay [1] was 9.10; in assay [2], 8.85; in assay [3], 9.44; in assay [4], 7.09; in assay [5], 7.11.
For the compound `c1cncc(-c2cccc(Nc3nccc(NC4CCCCC4)n3)c2)c1` [Compound 1, N^4-Cyclohexyl-N^2-(3-(pyridin-3-yl)phenyl)pyrimidine-2,4-diamine], the negative logarithm of the Kd (pKd) in assay [1] was 8.11; in assay [2], 7.51; in assay [3], 8.14; in assay [4], 6.17; in assay [5], 5.96.
For `CC(C)Nc1ccnc(Nc2ccccc2-c2ccccc2)n1` [Compound 6a, N^2-([1,1′-Biphenyl]-2-yl)-N^4-isopropylpyrimidine-2,4-diamine], in that order: < 5.00, < 5.00, < 5.00, < 5.00 and < 5.00.

A word on the pKd: it is the Kd on a negative log10 scale, so that one unit is a factor of ten. A higher pKd goes with a low Kd.
